Patent USRE38257E1, “Piperdine derivatives and hypotensives containing the same” (Ajinomoto Co., Inc., priority 1988, dated 2003)

Test system: male spontaneously hypertensive rats
Assay: Decrease in systolic blood pressure in spontaneously hypertensive rats after intravenous bolus injection, indirect (tail-cuff) method
Format: in vivo, rat
Details: for Decrease in systolic blood pressure (mmHg) time after administration (hour) 0.5: 0.5 hour after administration; for Decrease in systolic blood pressure (mmHg) time after administration (hour) 4: 4 hours after administration
Method: As test animals, four male spontaneously hypertensive rats (weight 400 to 440 g) that were sufficiently adapted for feeding and in which hypertension was confirmed were used.
Physiological saline aqueous solution containing 2.5% Nicolle and 2.5% ethanol of sample was intravenously administered by bolus injection at a dose of 1 ml per 1 kg of body weight. Systolic blood pressure after administration was measured by the indirect (tail-cuff) method.

SMILES	Decrease in systolic blood pressure (mmHg) time after administration (hour) 0.5 (dose 10 mg/kg i.v. bolus) [mmHg]	Decrease in systolic blood pressure (mmHg) time after administration (hour) 4 (dose 10 mg/kg i.v. bolus) [mmHg]	Decrease in systolic blood pressure (mmHg) time after administration (hour) 0.5 (dose 3 mg/kg i.v. bolus) [mmHg]	Decrease in systolic blood pressure (mmHg) time after administration (hour) 4 (dose 3 mg/kg i.v. bolus) [mmHg]
COc1cc(C(C#N)(CCCN2CCC(=C3c4ccccc4C=Cc4ccccc43)CC2)C(C)C)cc(OC)c1OC.Cl (stereo not drawn) [Example 126, 5-(4-(5H-Dibenzo[a,d]cyclohepten-5-ylidene)-1-piperidinyl)-2-isopropyl-2-(3,4,5-trimethoxyphenyl)valeronitrile hydrochloride]	−87	−19	–	–
Cl.Clc1ccccc1CN1CCC(=C2c3ccccc3C=Cc3ccccc32)CC1 [Example 128, 1-(2-Chlorobenzyl)-4-(5H-Dibenzo[a,d]cyclohepten-5-ylidene)piperidine hydrochloride]	−129	−8	–	–
Cl.Clc1cccc(CN2CCC(=C3c4ccccc4C=Cc4ccccc43)CC2)c1 [Example 129, 1-(3-Chlorobenzyl)-4-(5H-Dibenzo[a,d]cyclohepten-5-ylidene)piperidine hydrochloride]	−17	−1	–	–
Cl.Clc1ccc(CN2CCC(=C3c4ccccc4C=Cc4ccccc43)CC2)cc1 [Example 130, 1-(4-Chlorobenzyl)-4-(5H-Dibenzo[a,d]cyclohepten-5-ylidene)piperidine hydrochloride]	−42	9	–	–
Cc1ccccc1CN1CCC(=C2c3ccccc3C=Cc3ccccc32)CC1.Cl [Example 131, 4-(5H-Dibenzo[a,d]cyclohepten-5-ylidene)-1-(2-methylbenyl)piperidine hydrochloride]	−116	2	–	–
Cc1cccc(CN2CCC(=C3c4ccccc4C=Cc4ccccc43)CC2)c1.Cl [Example 132, 4-(5H-Dibenzo[a,d]cyclohepten-5-ylidene)-1-(3-methylbenyl)piperidine hydrochloride]	−106	−5	–	–
Cc1ccc(CN2CCC(=C3c4ccccc4C=Cc4ccccc43)CC2)cc1.Cl [Example 133, 4-(5H-Dibenzo[a,d]cyclohepten-5-ylidene)-1-(4-methylbenyl)piperidine hydrochloride]	–	–	−146	−84
CCCCCCCN1CCC(=C2c3ccccc3C=Cc3ccccc32)CC1.Cl [Example 134, 4-(5H-Dibenzo[a,d]cyclohepten-5-ylidene)-1-heptylpiperidine hydrochloride]	−115	−30	–	–
CCCCCCCCCCCCCCCCCCCN1CCC(=C2c3ccccc3C=Cc3ccccc32)CC1.Cl [Example 135, 4-(5H-Dibenzo[a,d]cyclohepten-5-ylidene)-1-nondecylpiperidine hydrochloride]	−132	−50	–	–
CCCCCCCCCCCN1CCC(=C2c3ccccc3C=Cc3ccccc32)CC1.Cl [Example 136, 4-(5H-Dibenzo[a,d]cyclohepten-5-ylidene)-1-undecylpiperidine hydrochloride]	−100	−40	–	–
Cl.Cl.Nc1ccccc1CN1CCC(=C2c3ccccc3C=Cc3ccccc32)CC1 [Example 138, 1-(2-Aminobenzy)-4-(5H-Dibenzo[a,d]cyclohepten-5-ylidene)piperidine dihydrochloride]	−129	−33	–	–
Cl.Cl.Nc1cccc(CN2CCC(=C3c4ccccc4C=Cc4ccccc43)CC2)c1 [Example 139, 1-(3-Aminobenzy)-4-(5H-Dibenzo[a,d]cyclohepten-5-ylidene)piperidine dihydrochloride]	−139	−89	–	–
Cl.Cl.Nc1ccc(CN2CCC(=C3c4ccccc4C=Cc4ccccc43)CC2)cc1 [Example 140, 1-(4-Aminobenzy)-4-(5H-Dibenzo[a,d]cyclohepten-5-ylidene)piperidine dihydrochloride]	–	–	−113	−101
Cl.O=[N+]([O-])c1cccc(CN2CCC(=C3c4ccccc4C=Cc4ccccc43)CC2)c1 [Example 142, 4-(5H-Dibenzo[a,d]cyclohepten-5-ylidene)-1-(3-nitrobenzyl)piperidine hydrochloride]	−43	0	–	–
CCC(C#N)(CCCN1CCC(=C2c3ccccc3C=Cc3ccccc32)CC1)c1cccc(C(F)(F)F)c1.Cl (stereo not drawn) [Example 149, 5-(4-(5H-Dibenzo[a,d]cyclohepten-5-ylidene)-1-piperidinyl)-2-ethyl-2-(3-trifluoromethylphenyl)valeronitrile hydrochloride]	−116	−32	–	–
CCCCC(C#N)(CCCN1CCC(=C2c3ccccc3C=Cc3ccccc32)CC1)c1cccc(C(F)(F)F)c1.Cl (stereo not drawn) [Example 150, 2-Butyl-5-(4-(5H-Dibenzo[a,d]cyclohepten-5-ylidene)-1-piperidinyl)-2-(3-trifluoromethylphenyl)valeronitrile hydrochloride]	−110	−47	–	–
CCCCCCC(C#N)(CCCN1CCC(=C2c3ccccc3C=Cc3ccccc32)CC1)c1cccc(C(F)(F)F)c1.Cl (stereo not drawn) [Example 151, 5-(4-(5H-Dibenzo[ac]cyclohepten-5-ylidene)-1-piperidinyl)-2-hexyl-2-(3-trifluoromethylphenyl)valeronitrile hydrochloride]	−81	−43	–	–
C1=Cc2ccccc2C(=C2CCN(CCCCCCC3CCCCC3)CC2)c2ccccc21.Cl [Example 154, 1-Cyclohexyl-6-(4-(5H-dibenzo[a,d]cyclohepten-5-ylidene)-1-piperidinyl)hexane hydrochloride]	−131	−105	–	–
C1=Cc2ccccc2C(=C2CCN(CCCCCCCC3CCCCC3)CC2)c2ccccc21.Cl [Example 155, 1-Cyclohexyl-7-(4-(5H-dibenzo[a,d]cyclohepten-5-ylidene)-1-piperidinyl)heptane hydrochloride]	−131	−105	–	–
C1=Cc2ccccc2C(=C2CCN(CCCCCCCCC3CCCCC3)CC2)c2ccccc21.Cl [Example 156, 1-Cyclohexyl-8-(4-(5H-dibenzo[a,d]cyclohepten-5-ylidene)-1-piperidinyl)octane hydrochloride]	−110	−42	–	–
O=C(CCCC1CCCCC1)N1CCC(=C2c3ccccc3C=Cc3ccccc32)CC1 [Example 157, 1-(4-Cyclohexylbutanoyl)-4-(5H-dibenzo[a,d]cyclohepten-5-ylidene)piperidine]	−32	−13	–	–
Cl.N#Cc1ccccc1CN1CCC(=C2c3ccccc3C=Cc3ccccc32)CC1 [Example 158, 1-(2-Cyanobenzyl)-4-(5H-dibenzo[a,d]cyclohepten-5-ylidene)piperidine hydrochloride]	−8	7	–	–
Cl.N#Cc1cccc(CN2CCC(=C3c4ccccc4C=Cc4ccccc43)CC2)c1 [Example 159, 1-(3-Cyanobenzyl)-4-(5H-dibenzo[a,d]cyclohepten-5-ylidene)piperidine hydrochloride]	−27	−12	–	–
Cl.N#Cc1ccc(CN2CCC(=C3c4ccccc4C=Cc4ccccc43)CC2)cc1 [Example 160, 1-(4-Cyanobenzyl)-4-(5H-dibenzo[a,d]cyclohepten-5-ylidene)piperidine hydrochloride]	−3	−10	–	–
C1=Cc2ccccc2C(=C2CCN(Cc3ccccn3)CC2)c2ccccc21.Cl.Cl [Example 161, 4-(5H-Dibenzo[a,d]cyclohepten-5-ylidene)-1-(2-Picolyl)piperidine dihydrochloride]	−64	−12	–	–
C1=Cc2ccccc2C(=C2CCN(Cc3cccnc3)CC2)c2ccccc21.Cl.Cl [Example 162, 4-(5H-Dibenzo[a,d]cyclohepten-5-ylidene)-1-(3-Picolyl)piperidine dihydrochloride]	−62	−3	–	–
C1=Cc2ccccc2C(=C2CCN(Cc3ccncc3)CC2)c2ccccc21.Cl.Cl [Example 163, 4-(5H-Dibenzo[a,d]cyclohepten-5-ylidene)-1-(4-Picolyl)piperidine dihydrochloride]	−1	4	–	–
